Earlier results, collected in patent US6395309B1, “Use of an extract of Alchemilla vulgaris to inhibit angiogenesis” (Weber & Weber GmbH & Co. KG, priority 1998, dated 2002).

Experiments:
[1] = clinically tested

Compound | histamine release from mast cells (mast cells) | toxic effects on clinical testing [1]
O=c1c(O)c(-c2ccc(O)cc2)oc2cc(O)cc(O)c12 [Campherol] | inhibits histamine release | –
Cc1ccc(C(=O)Nc2ccc(S(=O)(=O)O)c3cc(S(=O)(=O)O)cc(S(=O)(=O)O)c23)cc1NC(=O)c1cccc(NC(=O)Nc2cccc(C(=O)Nc3cc(C(=O)Nc4ccc(S(=O)(=O)O)c5cc(S(=O)(=O)O)cc(S(=O)(=O)O)c45)ccc3C)c2)c1 [Sumarin] | – | therapeutic use is questionable because of toxic effects
